# Read-outs that look alike come from different tables or passages of the source.
# What was measured:
# UACC-62 [1] = test system: UACC-62
# SN12C [2] = test system: SN12C
# TK-10 [3] = test system: TK-10
# NCI/ADR-RES [4] = conditions: NCI/ADR-RES
# NCI-H226 = test: cells; conditions: Homo sapiens, NCI-H226, 48 h
# HCT-15 = test: cells; conditions: Homo sapiens, HCT-15, 48 h
# HT29 = test: cells; conditions: Homo sapiens, HT-29, 48 h
# SF-268 = test: cells; conditions: Homo sapiens, SF-268, 48 h
# SF-295 = test: cells; conditions: Homo sapiens, SF-295, 48 h
# SNB-75 = test: cells; conditions: Homo sapiens, SNB-75, 48 h
# MALME-3M = test: cells; conditions: Homo sapiens, 48 h
# M14 = test: cells; conditions: Homo sapiens, M14, 48 h
# UACC-62 [5] = test: cells; conditions: Homo sapiens, UACC-62, 48 h
# 788-0 = test: cells; conditions: Homo sapiens, 48 h
# SN12C [6] = test: cells; conditions: Homo sapiens, 48 h
# TK-10 [7] = test: cells; conditions: Homo sapiens, TK-10, 48 h
# DU-145 = test: cells; conditions: Homo sapiens, DU-145, 48 h
# MCF7 = test: cells; conditions: Homo sapiens, MCF7, 48 h
# NCI/ADR-RES [8] = test: cells; conditions: Homo sapiens, 48 h
# [9] = Log10 Concentration −4.0, Molar
# [10] = Log10 Concentration −5.0, Molar
# [11] = Log10 Concentration −6.0, Molar
# [12] = Log10 Concentration −7.0, Molar
# [13] = Log10 Concentration −8.0, Molar
smiles,measurement,setting,value
CCOC(=O)C[C@@H]1C(O[Si](C)(C)C(C)(C)C)[C@H](n2cnc3c(NC(=O)Nc4ccccc4)ncnc32)O[C@@H]1CNC(=O)NC (stereo partly shown) [Compound 10],Percent Growth,HOP-92; [9],−61%
same,Percent Growth,HOP-92; [10],−32%
same,Percent Growth,HOP-92; [11],12%
same,Percent Growth,HOP-92; [12],−1%
same,Percent Growth,HOP-92; [13],4%
same,TGI,KM12; 48 h,2.09E−5 Molar
same,Percent Growth,KM12; [9],−28%
same,Percent Growth,KM12; [10],13%
same,Percent Growth,KM12; [11],105%
same,Percent Growth,KM12; [12],112%
same,Percent Growth,KM12; [13],107%
same,TGI,U251; 48 h,2.09E−5 Molar
same,Percent Growth,U251; [9],−61%
same,Percent Growth,U251; [10],28%
same,Percent Growth,U251; [11],94%
same,Percent Growth,U251; [12],95%
same,Percent Growth,U251; [13],98%
same,TGI,SK-MEL-2; 48 h,3.31E−5 Molar
same,Percent Growth,SK-MEL-2; [9],−30%
same,Percent Growth,SK-MEL-2; [10],32%
same,Percent Growth,SK-MEL-2; [11],99%
same,Percent Growth,SK-MEL-2; [12],94%
same,Percent Growth,SK-MEL-2; [13],102%
same,TGI,UACC-62 [1]; 48 h,>1.00E−4 Molar
same,Percent Growth,UACC-62 [1]; [9],60%
same,Percent Growth,UACC-62 [1]; [10],82%
same,Percent Growth,UACC-62 [1]; [11],97%
same,Percent Growth,UACC-62 [1]; [12],102%
same,Percent Growth,UACC-62 [1]; [13],100%
same,TGI,OVCAR-8; 48 h,7.72E−5 Molar
same,Percent Growth,OVCAR-8; [9],−4%
same,Percent Growth,OVCAR-8; [10],29%
same,Percent Growth,OVCAR-8; [11],98%
same,Percent Growth,OVCAR-8; [12],100%
same,Percent Growth,OVCAR-8; [13],99%
same,TGI,SK-OV-3; 48 h,>1.00E−4 Molar
same,Percent Growth,SK-OV-3; [9],16%
same,Percent Growth,SK-OV-3; [10],66%
same,Percent Growth,SK-OV-3; [11],90%
same,Percent Growth,SK-OV-3; [12],96%
same,Percent Growth,SK-OV-3; [13],96%
same,TGI,SN12C [2]; 48 h,>1.00E−4 Molar
same,Percent Growth,SN12C [2]; [9],11%
same,Percent Growth,SN12C [2]; [10],48%
same,Percent Growth,SN12C [2]; [11],103%
same,Percent Growth,SN12C [2]; [12],101%
same,Percent Growth,SN12C [2]; [13],101%
same,TGI,TK-10 [3]; 48 h,4.05E−5 Molar
same,Percent Growth,TK-10 [3]; [9],−38%
same,Percent Growth,TK-10 [3]; [10],59%
same,Percent Growth,TK-10 [3]; [11],105%
same,Percent Growth,TK-10 [3]; [12],103%
same,Percent Growth,TK-10 [3]; [13],98%
same,TGI,NCI/ADR-RES [4]; 48 h,>1.00E−4 Molar
same,Percent Growth,NCI/ADR-RES [4]; [9],59%
same,Percent Growth,NCI/ADR-RES [4]; [10],80%
same,Percent Growth,NCI/ADR-RES [4]; [11],104%
same,Percent Growth,NCI/ADR-RES [4]; [12],107%
same,Percent Growth,NCI/ADR-RES [4]; [13],105%
same,TGI,MDA-MB-231/ATCC; 48 h,4.13E−5 Molar
same,Percent Growth,MDA-MB-231/ATCC; [9],−13%
same,Percent Growth,MDA-MB-231/ATCC; [10],20%
same,Percent Growth,MDA-MB-231/ATCC; [11],94%
same,Percent Growth,MDA-MB-231/ATCC; [12],103%
same,Percent Growth,MDA-MB-231/ATCC; [13],101%
same,TGI,T-47D; 48 h,>1.00E−4 Molar
same,Percent Growth,T-47D; [9],13%
same,Percent Growth,T-47D; [10],16%
same,Percent Growth,T-47D; [11],73%
same,Percent Growth,T-47D; [12],89%
same,Percent Growth,T-47D; [13],91%
same,GI50,NCI-H226,> 100 µM
same,CC50,NCI-H226; read-out: LC50,> 100 µM
same,GI50,HCT-15,8.5 µM
same,CC50,HCT-15; read-out: LC50,> 100 µM
same,GI50,HT29,4.2 µM
same,CC50,HT29; read-out: LC50,> 100 µM
same,GI50,SF-268,6.53 µM
same,CC50,SF-268; read-out: LC50,92.5 µM
same,GI50,SF-295,5.73 µM
same,CC50,SF-295; read-out: LC50,> 100 µM
same,GI50,SNB-75,4.56 µM
same,CC50,SNB-75; read-out: LC50,> 100 µM
same,GI50,MALME-3M,10.3 µM
same,CC50,MALME-3M; read-out: LC50,> 100 µM
same,GI50,M14,2510 nM
same,CC50,M14; read-out: LC50,78.6 µM
same,GI50,UACC-62 [5],> 100 µM
same,CC50,UACC-62 [5]; read-out: LC50,> 100 µM
same,GI50,788-0,2000 nM
same,GI50,SN12C [6],9.1 µM
same,CC50,SN12C [6]; read-out: LC50,> 100 µM
same,GI50,TK-10 [7],12.4 µM
same,CC50,TK-10 [7]; read-out: LC50,> 100 µM
same,GI50,DU-145,4.97 µM
same,CC50,DU-145; read-out: LC50,78.4 µM
same,GI50,MCF7,3.42 µM
same,CC50,MCF7; read-out: LC50,> 100 µM
same,GI50,NCI/ADR-RES [8],> 100 µM
same,CC50,NCI/ADR-RES [8]; read-out: LC50,> 100 µM

# Source: US20100152434A1, “Protein Kinase-binding Nucleosides and Associated Methods” (priority 2007, published 2010)
